In patent publication US7074575B2, “Use of interleukin-19 to treat ovarian cancer” (ZymoGenetics, Inc., priority 2002, dated 2006) one finds inhibition of growth data, which are given here for two molecules.

The test system of the assay is Ovcar3 (ATCC #HTB-161) cells. Put plainly: Ovcar3 cytotoxicity assay (MTT readout). The assay is classed as cell-based. The following applies: 72 hours. How it is done:
We tested IL-19 in an Ovcar3 (ATCC #HTB-161) cytoxicity assay to measure the ability of IL-19 to prevent cells from growing during normal growth conditions. We used MTT reagent (Promega, Madison, USA) as our detection and readout for this cell inhibition assay. Procedure of a cytoxicity assay: Ovcar3 Cytotoxicity Assay
Ovcar3 (ATCC #HTB-161) cells were plated at a density of 5000 cells/100 ul/well in clear 96 well TC plates. Cells were plated in complete growth media consisting of RPMI containing 20% FBS, 0.01 mg/ml insulin, 2% HEPES, 1% Sodium Pyruvate and 1% Glutamax. Cells were incubated overnight at 37° C. in a 5% CO2 incubator.
The following day, media was removed from the cells and replaced with 100 ul/well of appropriately diluted samples. All sample dilutions were done in complete growth media. Samples were incubated on the cells for 72 hours.
After incubation, an MTT assay was done on the cells using the manufacturer's protocol (Promega #PAG4100). Dye solution was incubated on the cells 4 hours, followed by a 1 hour incubation with the stop solution. Absorbance was then read on the Victor II and percent inhibition was calculated from the wells containing complete growth media only.

In general, inhibition of growth refers to the share of the control response that was lost under treatment. Low values mean a weak effect, high ones a strong effect.

Consider `CC1=C(/C=C/C(C)=C/C=C/C(C)=C/C(=O)O)C(C)(C)CCC1` [Retnoic Acid], for which the inhibition of growth amounted to 29% (3 uM), 34% (10 uM), 43% (31 uM) and 83% (100 uM).

B1: IL-19: interleukin-19 polypeptide, amino acid sequence SEQ ID NO:2; mature secreted form amino acid 23 (His) to 177 (Ala) (protein, listed as Homo sapiens)
chain: MKLQCVSLWLLGTILILCSVDNHGLRRCLISTDMHHIEESFQEIKRAIQAKDTFPNVTILSTLETLQIIKPLDVCCVTKNLLAFYVDRVFKDHQEPNPKILRKISSIANSFLYMQKTLRQCQEQRQCHCRQEATNATRVIHDNYDQLEVHAAAIKSLGELDVFLAWINKNHEVMSSA
Molecule B1 had an inhibition of growth (1 ng/ml) of 4%, an inhibition of growth (10 ng/ml) of 9%, an inhibition of growth (100 ng/ml) of 23% and an inhibition of growth (1000 ng/ml) of 52%.
